Test results published in PMC11904993, “Humanized Candida and NanoBiT Assays Expedite Discovery of Bdf1 Bromodomain Inhibitors With Antifungal Potential” (Advanced Science, 2025).
Values joined by “and” are separate entries in the source; they are usually repeats but may differ in a detail not shown here. Equal entries are not always repeated. Where two headings read alike, the source gives them in different places.

Tests used:
C. auris Bdf1 BD1 = C. auris Bdf1 BD1 (Candidozyma auris (Candida auris), UniProt A0AAW0VEM6); test: HTRF assay, inhibition of H4ac4 peptide binding
Chain of C. auris Bdf1 BD1 (A0AAW0VEM6 entry or part of it): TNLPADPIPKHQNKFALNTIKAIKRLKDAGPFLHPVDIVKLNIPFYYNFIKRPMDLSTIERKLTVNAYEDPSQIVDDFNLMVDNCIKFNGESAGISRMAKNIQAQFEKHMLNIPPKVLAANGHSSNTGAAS

[1] = tested on: C. glabrata strains expressing WT and mutant Bdf1; test: Growth inhibition in liquid media, C. glabrata lab strains; settings: for %Growth: WT BDF1-flag
Description: Growth on Liquid Media with C. glabrata Lab Strains: Cells were grown at 30 °C in SC+M+C‐U medium (SC medium with 5 mM methionine, 0.25 mM cysteine, without uracil) to an OD600 of 0.5–0.8. […] Plates were incubated at 30 °C and OD600 was measured using a Multiskan FC Microplate Photometer (Thermo Fisher).

[2] = tested on: C. albicans expressing WT Bdf1; test: Galleria fungal infection model, WT strain; format: in vivo, Galleria mellonella; parameters: key to survival event of one larva (1 = death 0 = no death): 1 = death; 0 = no death
Description: Galleria mellonella larvae were purchased from Decathlon (La Tronche, France). They were selected in the late larval stages weighing between 300 and 400 mg. Groups of 10 larvae were injected into the right or left last pro‐leg with 10 µl of either PBS, C. albicans suspensions or antifungal drug using an insulin syringe (BDUltra‐Fine 0.3 ml). C. albicans suspensions of the WT and humanized Bdf1 strains were adjusted to 10^6 cells larva^−1. Antifungal drugs (anidulafungin 5 mg kg^−1 or I‐BET726 66 or 44 mg kg^−1) were injected once 30 min before fungal infection. An infected control group received the C. albicans inoculum and the solvent of the drug. A non‐infected control group received only PBS. After inoculation, larvae were placed in Petri dishes and incubated in the dark at 37 °C. The larvae were monitored for 5 days, and survival outcome was determined. For experiments performed at the lower (44 mg kg^−1) dose of IBET‐726, the difference in protection against infection with humanized versus WT C. albicans strains was more evident using the survival data at 40 h rather than at 100 h post‐infection. Larvae were considered dead when no response was observed following touch. All experiments were performed at least 3 times independently. The significance of survival was assessed by a Log‐rank (Mantel‐Cox) test in GraphPad Prism 10.

[3] = target: T1, Bdf1‐SmBiT/H2A.Z‐LgBiT pair (Saccharomyces cerevisiae, UniProt P35817); test: NanoBiT assay; format: cell-based, S. cerevisiae; parameters: remaining activity: dose or concentration left out as unconfirmed
T1 construct: expressed in transfected cells; host or cells: S. cerevisiae (H2A.Z-LgBiT strain)
T1 sequence (P35817 whole entry): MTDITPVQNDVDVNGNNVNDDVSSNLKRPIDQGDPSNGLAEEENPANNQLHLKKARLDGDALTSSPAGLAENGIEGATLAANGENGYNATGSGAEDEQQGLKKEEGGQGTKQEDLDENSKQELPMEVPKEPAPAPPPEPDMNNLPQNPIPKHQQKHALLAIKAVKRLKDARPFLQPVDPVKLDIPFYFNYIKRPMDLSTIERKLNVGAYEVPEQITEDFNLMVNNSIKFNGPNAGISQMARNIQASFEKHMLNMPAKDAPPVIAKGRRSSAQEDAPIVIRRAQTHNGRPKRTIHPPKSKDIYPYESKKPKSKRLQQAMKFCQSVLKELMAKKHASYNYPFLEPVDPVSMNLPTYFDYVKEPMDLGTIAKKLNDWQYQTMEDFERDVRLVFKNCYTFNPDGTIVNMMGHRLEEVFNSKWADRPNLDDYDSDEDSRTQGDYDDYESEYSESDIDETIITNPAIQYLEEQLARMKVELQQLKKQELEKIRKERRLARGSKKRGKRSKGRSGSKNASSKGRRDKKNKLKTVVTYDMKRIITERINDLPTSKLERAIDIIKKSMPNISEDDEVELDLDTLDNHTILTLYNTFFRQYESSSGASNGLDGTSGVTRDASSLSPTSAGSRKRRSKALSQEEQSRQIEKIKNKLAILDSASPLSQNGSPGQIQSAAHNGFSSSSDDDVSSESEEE
Description: (§1) Yeast strains were distributed in 96‐well microplates containing SC(MSG)‐U medium (SC‐U medium with 0.1% monosodium glutamate instead of ammonium sulfate as a nitrogen source) and grown at 30 °C. 40 µL of exponentially growing cells were transferred in white 96‐well half‐area microplates (ProxiPlate Plus, Greiner Bio‐One) previously filled with 40 µL per well of SC(MSG) containing 100 µM furimazine. The microplates were then incubated for 10 min in the dark before the luminescence signals were recorded using a microplate reader (Ensight, PerkinElmer). Luminescence measurements were performed for 1 s per well at a distance of 0.1 mm between the plate and the detector. The luminescence values were normalized with the optical density (OD600) of the corresponding cultures. For NanoBiT assays with BET inhibitors, yeast cultures were grown overnight at 30 °C in SC(MSG) medium in the presence of serial dilutions of 24c and I‐BET726. Overnight cultures were diluted 5 fold in SC(MSG) and incubated for 1 h before luminescence was recorded as previously indicated. Luminescence values for each condition were normalized using the average of the luminescence recorded for the Bdf1/Swc4 and Bmh1/Bmh2 controls.

Bmh1/Bmh2 = test: NanoBiT assay, control pair; format: cell-based, S. cerevisiae; parameters: Normalized nanoBiT signal: unit of the concentration uncertain
Description: as §1

C. auris Bdf1 BD2 = C. auris Bdf1 BD2 (Candidozyma auris (Candida auris), UniProt A0AAW0VEM6); test: HTRF assay, inhibition of H4ac4 peptide binding
Chain of C. auris Bdf1 BD2 (A0AAW0VEM6 entry or part of it): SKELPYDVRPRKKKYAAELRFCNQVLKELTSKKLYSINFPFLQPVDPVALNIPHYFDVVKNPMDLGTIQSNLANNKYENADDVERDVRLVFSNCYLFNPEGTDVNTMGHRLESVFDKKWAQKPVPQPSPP

[4] = read-out: HTRF signal, normalized (Figure 5A data)

CC(=O)N1c2ccc(-c3ccc(C(=O)O)cc3)cc2C(Nc2ccc(Cl)cc2)CC1C (stereo not drawn) [I-BET726]
remaining activity at 0.0021 µM (C. auris Bdf1 BD1; CauBD1, 2.10 nM, read-out: HTRF signal, normalized (Figure 5A data)): 105%
remaining activity at 0.01311 µM (C. auris Bdf1 BD1; CauBD1, 13.11 nM, read-out: HTRF signal, normalized (Figure 5A data)): 103%
remaining activity at 0.03277 µM (C. auris Bdf1 BD1; CauBD1, 32.77 nM, read-out: HTRF signal, normalized (Figure 5A data)): 106%
remaining activity at 0.2048 µM (C. auris Bdf1 BD1; CauBD1, 204.8 nM, read-out: HTRF signal, normalized (Figure 5A data)): 107%
remaining activity at 1.28 µM (C. auris Bdf1 BD1; CauBD1, 1280 nM, read-out: HTRF signal, normalized (Figure 5A data)): 100%
remaining activity at 3.2 µM (C. auris Bdf1 BD1; CauBD1, 3200 nM, read-out: HTRF signal, normalized (Figure 5A data)): 74.9%
remaining activity at 8 µM (C. auris Bdf1 BD1; CauBD1, 8000 nM, read-out: HTRF signal, normalized (Figure 5A data)): 34.7%
IC50 (C. auris Bdf1 BD1; Fig 5A, four replicates, read-out: IC50 (μM) BD1, C. aur. Bdf1): 14.7 ± 0.1 µM
remaining activity at 0.00524 µM (C. auris Bdf1 BD1; [4]): 103%
remaining activity at 0.512 µM (C. auris Bdf1 BD1; [4]): 103%
%Growth ([1]; Fig 3E, 50 µM, Exp 1-3): 24% and 29% and 27%
%Growth ([1]; Fig 3F, 0.0412 µM): 86.79% and 92.92% and 93.05%
%Growth ([1]; Fig 3F, 0.1235 µM): 78.65% and 90.9% and 90.48%
%Growth ([1]; Fig 3F, 0.3704 µM): 70.78% and 76.63% and 84.08%
%Growth ([1]; Fig 3F, 1.1111 µM): 65.69% and 73.22% and 70.81%
%Growth ([1]; Fig 3F, 3.3333 µM): 37.23% and 49.84% and 57.55%
%Growth ([1]; Fig 3F, 10 µM): 20.2% and 22.05% and 23.51%
EC50 ([1]; Nakaseomyces glabratus, read-out: EC50 (μM) growth inhibition, Fig 3F, strain BDF1-FLAG (WT Bdf1)): 3.24 ± 0.75 µM
EC50 ([1]; Nakaseomyces glabratus, read-out: EC50 (μM) growth inhibition, strain bdf1-Y166F (active BD: BD2)): 1.98 ± 0.36 µM
EC50 ([1]; Nakaseomyces glabratus, read-out: EC50 (μM) growth inhibition, strain bdf1-Y343F (active BD: BD1)): ~25 µM
EC50 ([1]; Nakaseomyces glabratus, read-out: EC50 (μM) growth inhibition, strain bdf1-bd1Δ (active BD: BD2)): 1.17 ± 0.1 µM
EC50 ([1]; Nakaseomyces glabratus, read-out: EC50 (μM) growth inhibition, strain bdf1-bd2Δ (active BD: BD1)): 13.7 ± 4.9 µM
Growth (%) ([1]; WT BDF1, 20 µM, Fig 5B): 34%
EC50 ([1]; read-out: EC50 (μM) growth inhibition, Fig 3F, strain BDF1-FLAG (WT Bdf1)): 3 µM and 3.2 µM
protection against infection ([2]; 44 mg kg^−1): not significant
survival of infected larvae ([2]; 66 mg kg^−1, injected once 30 min before infection): ≈ 100 h
survival event of one larva (1 = death 0 = no death) ([2]; Figure 6B, Time 10 hours): 1
survival event of one larva (1 = death 0 = no death) ([2]; Figure 6B, Time 35 hours): 1
survival event of one larva (1 = death 0 = no death) ([2]; Figure 6B, Time 50 hours): 1
survival event of one larva (1 = death 0 = no death) ([2]; Figure 6B, Time 73 hours): 1
survival event of one larva (1 = death 0 = no death) ([2]; Figure 6D, Time 17 hours): 1
survival event of one larva (1 = death 0 = no death) ([2]; Figure 6D, Time 23 hours): 1
survival event of one larva (1 = death 0 = no death) ([2]; Figure 6D, Time 41 hours): 1 and 0
remaining activity at 24.41 µM ([3]; Bdf1-SmBiT, Htz1-LgBiT, 0.02441 mM, Fig 4C, read-out: Normalized nanoBiT signal): 92%
remaining activity at 97.66 µM ([3]; Bdf1-SmBiT, Htz1-LgBiT, 0.09766 mM, Fig 4C, read-out: Normalized nanoBiT signal): 93%
remaining activity at 195.31 µM ([3]; Bdf1-SmBiT, Htz1-LgBiT, 0.19531 mM, Fig 4C, read-out: Normalized nanoBiT signal): 96%
remaining activity at 390.63 µM ([3]; Bdf1-SmBiT, Htz1-LgBiT, 0.39063 mM, Fig 4C, read-out: Normalized nanoBiT signal): 92%
remaining activity at 781.25 µM ([3]; Bdf1-SmBiT, Htz1-LgBiT, 0.78125 mM, Fig 4C, read-out: Normalized nanoBiT signal): 83%
remaining activity at 1562.5 µM ([3]; Bdf1-SmBiT, Htz1-LgBiT, 1.56250 mM, Fig 4C, read-out: Normalized nanoBiT signal): 65%
remaining activity at 3125 µM ([3]; Bdf1-SmBiT, Htz1-LgBiT, 3.12500 mM, Fig 4C, read-out: Normalized nanoBiT signal): 46%
remaining activity ([3]; Bdf1-SmBiT, Htz1-LgBiT, […], Fig 4C, read-out: Normalized nanoBiT signal): 39%
IC50 ([3]; mean and s.d., 4 independent experiments, read-out: IC50 (μM) (ScBdf1 / H2A.Z) NanoBiT signal): 2.1 µM
remaining activity at 48.83 µM ([3]; read-out: Normalized nanoBiT signal): 96%
Normalized nanoBiT signal (Bmh1/Bmh2): 108% and 107% and 96% and 97%
Normalized nanoBiT signal (Bmh1/Bmh2; Bmh1-LgBiT, Bmh2-SmBiT, 0.02441 (unit uncertain), Fig 4C): 104% and 103% and 105% and 97%
Normalized nanoBiT signal (Bmh1/Bmh2; Bmh1-LgBiT, Bmh2-SmBiT, 0.09766 (unit uncertain), Fig 4C): 105% and 106% and 103% and 100%
Normalized nanoBiT signal (Bmh1/Bmh2; Bmh1-LgBiT, Bmh2-SmBiT, 0.19531 (unit uncertain), Fig 4C): 105% and 94% and 98%
Normalized nanoBiT signal (Bmh1/Bmh2; Bmh1-LgBiT, Bmh2-SmBiT, 0.39063 (unit uncertain), Fig 4C): 110% and 103% and 98% and 96%
Normalized nanoBiT signal (Bmh1/Bmh2; Bmh1-LgBiT, Bmh2-SmBiT, 0.78125 (unit uncertain), Fig 4C): 109% and 110% and 93% and 102%
Normalized nanoBiT signal (Bmh1/Bmh2; Bmh1-LgBiT, Bmh2-SmBiT, 1.56250 (unit uncertain), Fig 4C): 115% and 111% and 95% and 99%
Normalized nanoBiT signal (Bmh1/Bmh2; Bmh1-LgBiT, Bmh2-SmBiT, 3.12500 (unit uncertain), Fig 4C): 112% and 118% and 104% and 101%
inhibition of NanoBiT signal, Bmh1/Bmh2 (Bmh1/Bmh2; unrelated control pair): not observed
remaining activity at 0.0021 µM (C. auris Bdf1 BD2; CauBD2, 2.10 nM, read-out: HTRF signal, normalized (Figure 5A data)): 97.4%
remaining activity at 0.01311 µM (C. auris Bdf1 BD2; CauBD2, 13.11 nM, read-out: HTRF signal, normalized (Figure 5A data)): 85.4%
remaining activity at 0.03277 µM (C. auris Bdf1 BD2; CauBD2, 32.77 nM, read-out: HTRF signal, normalized (Figure 5A data)): 75%
remaining activity at 0.08192 µM (C. auris Bdf1 BD2; CauBD2, 81.92 nM, read-out: HTRF signal, normalized (Figure 5A data)): 52.6%
remaining activity at 0.2048 µM (C. auris Bdf1 BD2; CauBD2, 204.8 nM, read-out: HTRF signal, normalized (Figure 5A data)): 31%
remaining activity at 0.512 µM (C. auris Bdf1 BD2; CauBD2, 512 nM, read-out: HTRF signal, normalized (Figure 5A data)): 12.9%
remaining activity at 3.2 µM (C. auris Bdf1 BD2; CauBD2, 3200 nM, read-out: HTRF signal, normalized (Figure 5A data)): 5.12%
remaining activity at 8 µM (C. auris Bdf1 BD2; CauBD2, 8000 nM, read-out: HTRF signal, normalized (Figure 5A data)): 5.06%
IC50 (C. auris Bdf1 BD2; Fig 5A, four replicates, read-out: IC50 (μM) BD2, C. aur. Bdf1): 0.23 ± 0.02 µM
remaining activity at 0.00524 µM (C. auris Bdf1 BD2; [4]): 90.6%
remaining activity at 8 µM (C. auris Bdf1 BD2; [4]): 2.46%
